# Measured values from patent publication US9447136B2, “Semisynthetic derivatives of Nystatin A1” (BLIRT S.A., priority 2012, dated 2016).
# Assay type: physicochemical
# Excerpt: As described herein, a compound of the invention may also be provided in the form of a complex, with a complexing agent.
smiles,measurement,value
"CCCN(CC(=O)C(O)C(O)C(O)CO)C1C(O)C(C)OC(OC2C=CC=CC=CC=CCCC=CC=CC(C)C(O)C(C)C(C)OC(=O)CC(O)CC(O)CCC(O)C(O)CC(O)CC3(O)CC(O)C(C(=O)O)C(C2)O3)C1O.CNCC(O)C(O)C(O)C(O)CO [Compound N59, N-methyl-D-glucamine salt of N-fructosyl-N-n-propylnystatin A1]",water solubility of the salt,water soluble
